Experimental findings from patent publication US20240254114A1, “PREPARATION OF FUSED AZOLE DERIVATIVES AS NOVEL DIACYLGLYCERIDE 0-ACYLTRANSFERASE 2 INHIBITORS” (Merck Sharp & Dohme LLC, priority 2022, published 2024) are described below.

pIC50: −log10 of the molar value. Read-outs that look alike come from different tables or passages of the source.

In this test the target is human DGAT2 (Homo sapiens (Human), UniProt Q96PD7). The experiment in a line: DGAT2 Enzymatic Activity Assay. As to conditions: 13C18-triolein product by LC/MS/MS.
Setting [1] is: read-out: Human DGAT2 IC50, hDGAT2 membrane prep from Sf-9 cells.
Where [2] appears, read: Human DGAT2 IC50, hDGAT2 membrane prep from Sf-9 cells.

Chain of human DGAT2 (Q96PD7 whole entry): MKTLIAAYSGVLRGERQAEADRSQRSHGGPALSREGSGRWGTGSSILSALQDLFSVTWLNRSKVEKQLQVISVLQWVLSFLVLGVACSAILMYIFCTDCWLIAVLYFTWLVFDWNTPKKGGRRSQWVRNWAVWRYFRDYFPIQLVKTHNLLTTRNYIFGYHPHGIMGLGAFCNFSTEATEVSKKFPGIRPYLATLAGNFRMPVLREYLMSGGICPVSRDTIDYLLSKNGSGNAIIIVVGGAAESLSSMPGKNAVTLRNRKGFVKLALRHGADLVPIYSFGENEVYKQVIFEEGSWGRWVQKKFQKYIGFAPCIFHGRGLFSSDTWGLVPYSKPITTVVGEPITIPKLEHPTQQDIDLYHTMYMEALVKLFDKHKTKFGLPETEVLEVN
Experimental: Sf-9 insect cells were maintained in Grace's insect cell culture medium with 10% heated-inactivated fetal bovine serum, 1% Pluronic F-68 and 0.14 μg/ml Kanamycine sulfate at 27° C. in a shaker incubator. After infection with untagged baculovirus expressing human DGAT2 (hDGAT2) at multiplicity of infection (MOI) 3 for 48 hours, cells were harvested. Cell pellets were suspended in buffer containing 10 mM Tris-HCl pH 7.5, 1 mM EDTA, 250 mM sucrose and Complete Protease Inhibitor Cocktail (Sigma Aldrich), and sonicated on ice. Cell debris were removed by centrifugation at 2000×g for 15 minutes. Membrane fractions were isolated by ultracentrifugation (100,000×g), resuspended in the same buffer, and frozen (−80° C.) for later use. The protein concentration was determined with the Pierce™ BCA Protein Assay Kit (Thermo Fisher Scientific).
LC/MS/MS analyses were performed using Thermal Fisher's LX4-TSQ Vantage system. This system consists of an Agilent binary high-performance liquid chromatography (HPLC) pump and a TSQ Vantage triple quadrupole MS/MS instrument. For each sample, 2 μL samples from the top organic layer of in-plate liquid-liquid extraction were injected onto a Thermo Betabasic C4 column (2.1 mm×20 mm, 5 μm particle size). The samples were then eluted using the following conditions; mobile phase: Isopropanol: acetonitrile/10 mM ammonium formate=50/35/15 (v/v/v), flow rate: 0.8 mL/min, temperature: 25° C. Data was acquired in positive mode using a heated electrospray ionization (HESI) interface. […] The peak area was integrated by Xcalibur Quan software. The ratio between the ^13C18 triolein generated in the reaction and spiked in internal standard ^13C21-triolein was used to generate percentage inhibition and IC50 values. […] DGAT2 activity was determined by measuring the amount of enzymatic product ^13C18-triolein (^13C-1,2,3-Tri(cis-9-octadecenoyl)glycerol) using the membrane prep mentioned above. The assay was carried out in ABgene 384-well assay plates in a final volume of 25 μL at rt.

`Cn1c(C(=O)NC2(C)CCS(=O)(=O)CC2)nc2cnc(Oc3nccnc3OCC(F)(F)F)cc21` [Example 69, 1-methyl-N-(4-methyl-1,1-dioxo-thian-4-yl)-6-[3-(2,2,2-trifluoroethoxy)pyrazin-2-yl]oxy-imidazo[4,5-c]pyridine-2-carboxamide]: the pIC50 (usually the negative decadic logarithm of the IC50, by convention in mol/L) under setting [1] was 6.98.
Take `Cn1c(C(=O)NC2(C)CCS(=O)(=O)CC2)nc2cnc(Oc3ncc(Cl)cc3OCC(F)F)nc21` [Example 88, 2-[[5-Chloro-3-(2,2-difluoroethoxy)-2-pyridyl]oxy]-9-methyl-N-(4-methyl-1,1-dioxo-thian-4-yl)purine-8-carboxamide]: the pIC50 under setting [2] was 7.24.
With `Cn1c(C(=O)NC2(C)CCS(=O)(=O)CC2)nc2cnc(Oc3ncc(F)cc3OCC(F)(F)F)nc21` [Example 89, 2-[[5-fluoro-3-(2,2,2-trifluoroethoxy)-2-pyridyl]oxy]-9-methyl-N-(4-methyl-1,1-dioxo-thian-4-yl)purine-8-carboxamide], under setting [1], the pIC50 is 7.60.
For the compound `Cn1c(C(=O)NC2(C)CCS(=O)(=O)CC2)nc2cc(Oc3ncccc3OCC(F)(F)F)ccc21` [Example 12, 1-Methyl-N-(4-methyl-1,1-dioxidotetrahydro-2H-thiopyran-4-yl)-5-((3-(2,2,2-trifluoroethoxy)pyridin-2-yl)oxy)-1H-benzo[d]imidazole-2-carboxamide], under setting [2], the pIC50 is 6.16.
Under setting [2], `Cc1cc(Oc2ncc(Cl)cc2OCC(F)F)nc2c1nc(C(=O)NC1(C)CCS(=O)(=O)CC1)n2C` [Example 49, 5-[[5-chloro-3-(2,2-difluoroethoxy)-2-pyridyl]oxy]-3,7-dimethyl-N-(4-methyl-1,1-dioxo-thian-4-yl)imidazo[4,5-b]pyridin-4-ium-2-carboxamide] had a pIC50 of 8.36.
Regarding `CCn1c(C(=O)NC2(C)CCS(=O)(=O)CC2)nc2ccc(Oc3ncc(Cl)cc3OCC(F)F)nc21` [Example 55, 5-((5-chloro-3-(2,2-difluoroethoxy)pyridin-2-yl)oxy)-3-ethyl-N-(4-methyl-1,1-dioxidotetrahydro-2H-thiopyran-4-yl)-3H-imidazo[4,5-b]pyridine-2-carboxamide], the pIC50 under setting [1] is 8.05.
With `CC1(NC(=O)c2nc3cnc(Oc4ncc(Cl)cc4OCC(F)F)cc3s2)CCS(=O)(=O)CC1` [Example 97, 6-[[5-chloro-3-(2,2-difluoroethoxy)-2-pyridyl]oxy]-N-(4-methyl-1,1-dioxo-thian-4-yl)thiazolo[4,5-c]pyridine-2-carboxamide], under setting [2], the pIC50 was 8.60.
For the compound `Cn1c(C(=O)NC2(C)CCS(=O)(=O)CC2)nc2ccc(Oc3ncccc3OCC(F)(F)F)cc21` [Example 11, 1-Methyl-N-(4-methyl-1,1-dioxidotetrahydro-2H-thiopyran-4-yl)-6-((3-(2,2,2-trifluoroethoxy)pyridin-2-yl)oxy)-1H-benzo[d]imidazole-2-carboxamide], the pIC50 under setting [2] is 8.89.
The same measure, in the same setting: the figure for `CC1(NC(=O)c2nc3ncc(Oc4ncccc4OCC(F)(F)F)cc3o2)CCS(=O)(=O)CC1` [Example 98, N-(4-methyl-1,1-dioxidotetrahydro-2H-thiopyran-4-yl)-6-((3-(2,2,2-trifluoroethoxy)pyridin-2-yl)oxy)oxazolo[4,5-b]pyridine-2-carboxamide] is 6.17.
Consider `Cc1cc2nc(C(=O)NC3(C)CCS(=O)(=O)CC3)n(C)c2nc1Oc1ncc(F)cc1OCC(C)(F)F` [Example 47, 5-[[3-(2,2-difluoropropoxy)-5-fluoro-2-pyridyl]oxy]-3,6-dimethyl-N-(4-methyl-1,1-dioxo-thian-4-yl)imidazo[4,5-b]pyridine-2-carboxamide], for which the pIC50 under setting [1] is 7.10.
Under setting [2], `Cn1c(C(=O)NC2(C)CCS(=O)(=O)CC2)nc2ccc(OCc3ncc(Cl)cc3OCC(F)F)nc21` [Example 58, 5-((5-Chloro-3-(2,2-difluoroethoxy)pyridin-2-yl)methoxy)-3-methyl-N-(4-methyl-1,1-dioxidotetrahydro-2H-thiopyran-4-yl)-3H-imidazo[4,5-b]pyridine-2-carboxamide] gave a pIC50 of 8.64.
